How the values were obtained:
E. coli = format: cell-based, Escherichia coli; settings: for IC50: Mueller-Hinton Broth, 37° C., 18 hours, up to 20 μM, read-out: IC50 against E. coli; for Inhibition of growth of E. coli: at the concentrations tested (0.3125-20 μM)
Protocol: (§1) A single E. coli or B. subtilis colony was used to inoculate 5 ml of Luria-Bertani media and grown overnight at 37° C. The following day, the optical density of the culture was measured and the bacteria diluted to an optical density at 600 nm (OD600) of 0.01 in Mueller-Hinton Broth. Diluted E. coli or B. subtilis were added to 96-well plates with defensins at concentrations of 20 μM, 10 μM, 5 μM, 2.5 μM, 1.25 μM, 0.625 μM or 0.3125 μM. Plates were read at OD595 to obtain time zero data points. Plates were incubated at 37° C. for 18 hours before reading again at OD595 to assess the amount of bacterial growth.

C. neoformans = assay: Inhibition of growth of Cryptococcus neoformans, Example 2 antifungal assay; format: cell-based; settings: ½ strength PDB, 30° C., A595
Protocol: (§2) The inhibitory effects of the plant defensins on the growth of Candida albicans, Aspergillus fumigatus (obtained from the National Mycology Reference Centre, South Australia Pathology at the Women's and Children's Hospital, Adelaide, Australia), C. glabrata, C. tropicalis, A. flavus, A. niger, A. fumigants, Cryptococcus neoformans and C. gattii (obtained from Dee Carter, University of Sydney, New South Wales, Australia) are measured essentially as described by Broekaert et al. (1990) FEMS Microbiol Lett 69:55-59.
(§3) Spores of A. flavus. A. niger and A. fumigatus are isolated from sporulating fungus growing on ½ strength Sabouraud dextrose agar. Spores were removed from the plates by the addition of ½ strength potato dextrose broth (PDB). C. albicans, C. glabrata, C. tropicalis, C. neoformans and C. gattii cells are grown in Yeast Peptone Broth (YPD) for 16 h. Spore and cell concentrations are measured using a hemocytometer.
(§4) Antifungal assays are conducted in 96 well microtitre plates essentially as herein described. Wells are loaded with 20 μL of filter sterilized (0.22 μm syringe filter, Millipore) defensin (10× stock for each final concentration) or water and 80 μL of 5×10^4 spores/mL (A. flavus, A. niger, A. fumigatus), 5,000 cells/mL (C. albicans, C. glabrata, C. tropicalis) or 1×10^6 cells/mL (C. neoformans, C. gattii) in ½ strength PDB. The plates are incubated at 30° C. Fungal growth is assayed by measuring optical density at 595 nm (A595) using a microtitre plate reader (SpectraMax Pro M2; Molecular Devices. Growth is allowed to proceed until the optical density (OD) of the fungus in the absence of any test defensin reached an OD of 0.2. Each test is performed in duplicate.

B. subtilis = assay: Inhibition of the growth of Bacillus subtilis (OD595, 18 hours); format: cell-based; settings: for IC50: Mueller-Hinton Broth, 37° C., 18 hours, up to 20 μM, read-out: IC50 against B. subtilis; for Inhibition of growth of B. subtilis: at the concentrations tested (0.3125-20 μM)
Protocol: as §1

C. tropicalis = assay: Inhibition of growth of C. tropicalis, Example 2 antifungal assay; format: cell-based; settings: ½ strength PDB, 30° C., A595
Protocol: as §2, §3, §4

M. fulvum = assay: Inhibition of growth of Microsporum fulvum by plant defensins (microtitre A595 antifungal assay); format: cell-based; settings: for IC50 against M. fulvum: ½ strength PDB, 30° C., A595
Protocol: (§5) The inhibitory effects of the plant defensins on the growth of Trichophyton rubrum, T. interdigitale, Microsporum fulvum and C. albicans (all obtained from the National Mycology Reference Centre, South Australia Pathology at the Women's and Children's Hospital, Adelaide, Australia) are measured essentially as described by Broekaert et al. (1990) FEMS Microbiol Lett 69:55-59.
as §3, with “T. rubrum, T. interdigitale” for “A. flavus. A. niger”, “M. fulvum” for “A. fumigatus”, “albicans” for “albicans, C. glabrata, C. tropicalis, C. neoformans and C. gattii”
as §4, with “Ξ m” for “μm”, “(T. rubrum, T. interdigitale, M. fulvum) or” for “(A. flavus, A. niger, A. fumigatus),”, “albicans)” for “albicans, C. glabrata, C. tropicalis) or 1×10^6 cells/mL (C. neoformans, C. gattii)”

C. albicans = assay: Inhibition of growth of Candida albicans, Example 2 antifungal assay; format: cell-based; settings: Table 4; ½ strength PDB, 30° C., A595
Protocol: as §2, §3, §4

A. fumigatus = assay: Inhibition of growth of Aspergillus fumigatus, Example 2 antifungal assay; format: cell-based; settings: ½ strength PDB, 30° C., A595
Protocol: as §2, §3, §4

T. rubrum = assay: Inhibition of growth of Trichophyton rubrum by plant defensins (microtitre A595 antifungal assay); format: cell-based; settings: ½ strength PDB, 30° C.
Protocol: as §5
as §3, with “T. rubrum, T. interdigitale” for “A. flavus. A. niger”, “M. fulvum” for “A. fumigatus”, “albicans” for “albicans, C. glabrata, C. tropicalis, C. neoformans and C. gattii”
as §4, with “Ξ m” for “μm”, “(T. rubrum, T. interdigitale, M. fulvum) or” for “(A. flavus, A. niger, A. fumigatus),”, “albicans)” for “albicans, C. glabrata, C. tropicalis) or 1×10^6 cells/mL (C. neoformans, C. gattii)”

C. gattii = assay: Inhibition of growth of C. gattii, Example 2 antifungal assay; format: cell-based; settings: ½ strength PDB, 30° C., A595
Protocol: as §2, §3, §4

C. glabrata = assay: Inhibition of growth of C. glabrata, Example 2 antifungal assay; format: cell-based; settings: ½ strength PDB, 30° C., A595
Protocol: as §2, §3, §4

A. niger = assay: Inhibition of growth of A. niger, Example 2 antifungal assay; format: cell-based; settings: ½ strength PDB, 30° C., A595
Protocol: as §2, §3, §4

A. flavus = assay: Inhibition of growth of A. flavus, Example 2 antifungal assay; format: cell-based; settings: ½ strength PDB, 30° C., A595
Protocol: as §2, §3, §4

[1] = system: Trichophyton rubrum, T. interdigitale, Microsporum fulvum and C. albicans; assay: Inhibition assays of Example 1, summary across the range of fungal pathogens; format: cell-based; settings: summary of Table 3, at the concentrations tested
Protocol: as §5
as §3, with “T. rubrum, T. interdigitale” for “A. flavus. A. niger”, “M. fulvum” for “A. fumigatus”, “albicans” for “albicans, C. glabrata, C. tropicalis, C. neoformans and C. gattii”
as §4, with “Ξ m” for “μm”, “(T. rubrum, T. interdigitale, M. fulvum) or” for “(A. flavus, A. niger, A. fumigatus),”, “albicans)” for “albicans, C. glabrata, C. tropicalis) or 1×10^6 cells/mL (C. neoformans, C. gattii)”

T. albicans = assay: Inhibition of growth of C. albicans by plant defensins, Example 1 (microtitre A595 antifungal assay); format: cell-based; settings: for IC50 against T. albicans: Table 3, ½ strength PDB, 30° C., A595
Protocol: as §5
as §3, with “T. rubrum, T. interdigitale” for “A. flavus. A. niger”, “M. fulvum” for “A. fumigatus”, “albicans” for “albicans, C. glabrata, C. tropicalis, C. neoformans and C. gattii”
as §4, with “Ξ m” for “μm”, “(T. rubrum, T. interdigitale, M. fulvum) or” for “(A. flavus, A. niger, A. fumigatus),”, “albicans)” for “albicans, C. glabrata, C. tropicalis) or 1×10^6 cells/mL (C. neoformans, C. gattii)”

Compound	IC50 (E. coli) [µM]	IC50 against C. neoformans (C. neoformans) [µg/mL]	IC50 (B. subtilis) [µM]	Inhibition of growth of B. subtilis (B. subtilis)	IC50 against C. tropicalis (C. tropicalis) [µg/mL]	IC50 against M. fulvum (M. fulvum) [µg/mL]	IC50 against C. albicans (C. albicans) [µg/mL]	IC50 against A. fumigatus (A. fumigatus) [µg/mL]	Inhibition of growth of E. coli (E. coli)	IC50 against T. rubrum (T. rubrum) [µg/mL]	IC50 against C. gattii (C. gattii) [µg/mL]	IC50 against C. glabrata (C. glabrata) [µg/mL]	IC50 against A. niger (A. niger) [µg/mL]	IC50 against A. flavus (A. flavus) [µg/mL]	Activity across the range of fungal pathogens [1]	IC50 against T. albicans (T. albicans) [µg/mL]	Inhibition of M. fulvum (M. fulvum; summary of Table 3)	Inhibition of C. albicans (T. albicans; summary of Table 3)
CC[C@H](C)[C@H](NC(=O)[C@H](CCCCN)NC(=O)[C@H](CCC(=O)O)NC(=O)[C@H](CCCCN)NC(=O)[C@H](CO)NC(=O)[C@H](CCCCN)NC(=O)[C@H](CCCNC(=N)N)NC(=O)[C@H](Cc1ccccc1)NC(=O)[C@H](Cc1ccccc1)NC(=O)[C@H](CC(=O)O)NC(=O)CNC(=O)[C@H](CC(C)C)NC(=O)[C@@H](N)CC(C)C)C(=O)NCC(=O)N[C@@H](CCCCN)C(=O)N[C@@H](CCC(=O)O)C(=O)N[C@@H](Cc1ccccc1)C(=O)N[C@@H](CCCCN)C(=O)N[C@@H](CCCNC(=N)N)C(=O)N[C@H](C(=O)N[C@H](C(=O)N[C@@H](CCC(N)=O)C(=O)N[C@@H](CCCNC(=N)N)C(=O)N[C@H](C(=O)N[C@@H](CCCCN)C(=O)N[C@@H](CC(=O)O)C(=O)N[C@@H](Cc1ccccc1)C(=O)N[C@@H](CC(C)C)C(=O)N[C@@H](CCCNC(=N)N)C(=O)N[C@@H](CC(N)=O)C(=O)N[C@@H](CC(C)C)C(=O)N[C@H](C(=O)N1CCC[C@H]1C(=O)N[C@@H](CCCNC(=N)N)C(=O)N[C@H](C(=O)N[C@@H](CCC(=O)O)C(=O)N[C@@H](CO)C(=O)O)[C@@H](C)O)C(C)C)[C@@H](C)CC)C(C)C)[C@@H](C)CC [LL37, reference compound]	2.5																	
HXL001: Class I plant defensin from Zea mays (RHCLSQSHRFKGLCMSSNNCANVCQTENFPGGECKAEGATRKCFCKKIC; HXL001 Zea mays)	> 20	10	> 20	did not inhibit the growth	6	>100	35	>100	did not inhibit the growth	>100	40	32	>100	>100	did not display any activity	35		
HXL002: Class I plant defensin from Triticum aestivum (RDCLSQSHKFKGACLSSSNCAAVCRTENFPDGECHTHNFARKCFCKRAC; HXL002 Triticum aestivum)	> 20	2.5	> 20	did not inhibit the growth	2	50	35	25	did not inhibit the growth		18	15	20			35	very poor inhibitors	very poor inhibitors
HXL003: Class I plant defensin from Triticum aestivum (ARDCTSQSHKFVGLCLSDRNCASVCLTEYFTGGKCDHRRCVCTKGC; HXL003 Triticum aestivum)	> 20	3	> 20	did not inhibit the growth	8	>100	>100	>100	did not inhibit the growth		20	>100	>100	>100		>100		
